Laboratory results reported in patent US12686846B2, “Plant sweet and yeast MSF transporter capable of transporting different sugars simultaneously” (THE BOARD OF TRUSTEES OF THE UNIVERSITY OF ILLINOIS, priority 2020, dated 2026).

Key:
Type in all cases: cell-based
[1] = target: T1, Arabidopsis thaliana AtSWEET7 transporter, wild type (Table 2: SEQ ID NO: 3; FIG. 12: SEQ ID NO:2) (Arabidopsis thaliana, UniProt Q8LBF7); assay: C14 labeled sugar uptake assay (zero-trans influx), SR8D8 expressing AtSWEET7; conditions: initial xylose uptake (20 s), 30° C., pH 6.5; cell wet weight; ± SEM
T1 construct: expressed in transfected cells; host or cells: S. cerevisiae SR8D8 (SR8 with HXT1-7 and GAL2 deleted), plasmid p42K-GPD1p-CYC1t
T1 sequence (Q8LBF7 1-258): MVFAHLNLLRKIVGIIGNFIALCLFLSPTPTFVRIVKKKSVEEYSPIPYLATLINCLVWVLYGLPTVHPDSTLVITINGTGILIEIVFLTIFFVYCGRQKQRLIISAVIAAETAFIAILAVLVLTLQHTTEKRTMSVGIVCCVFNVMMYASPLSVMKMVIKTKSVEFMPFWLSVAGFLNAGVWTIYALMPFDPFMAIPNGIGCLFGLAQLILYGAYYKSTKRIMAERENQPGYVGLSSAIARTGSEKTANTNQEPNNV
Description: (§1) FIG. 7A illustrates sugar uptake kinetics by SR8D8. FIG. 7B illustrates sugar uptake kinetics by SR8D8 expressing AtSWEET1. FIG. 7C illustrates sugar uptake kinetics by SR8D8 expressing ScGal2. FIG. 7D illustrates sugar uptake kinetics by SR8D8 expressing AtSWEET7. FIG. 7E illustrates sugar uptake kinetics by SR8D8 expressing LST1_205437. Initial xylose uptake (20 s) was measured at 30° C. over a concentration range of 1 to 500 mM xylose. FIG. 7F illustrates sugar uptake kinetics by SR8D8. FIG. 7G illustrates sugar uptake kinetics by SR8D8 expressing AtSWEET1. FIG. 7H illustrates sugar uptake kinetics by SR8D8 expressing ScGal2. FIG. 7I illustrates sugar uptake kinetics by SR8D8 expressing AtSWEET7. FIG. 7J illustrates sugar uptake kinetics by SR8D8 expressing LST1_205437. Initial glucose uptake (5 s) was measured at 30° C. over a concentration range of 0.2 to 100 mM glucose. […]
(§2) A xylose fermenting S. cerevisiae yeast (SR8) with HXT1-7Δ, GAL2Δ deletions was used for transporter screening and characterization (SR8D8). […] Biomass was calculated from the OD600 measured using a Biomate 5 UV-visible spectrophotometer (Fisher, NY, USA). All growth rates were measured using a Bioscreen C plate reader system (Growth Curves USA, Piscataway, NJ, USA). […]
(§3) Uptake was measured at sugar concentrations 0.2, 1, 5, 25, and 100 mM for glucose and 1, 5, 25, 66, 100, 200, and 500 mM for xylose. […]

[2] = target: T2, Lipomyces starkeyi LST1_205437 transporter, wild type, SEQ ID NO: 4 (Lipomyces starkeyi, UniProt A0A1E3QE37); assay: C14 labeled sugar uptake assay (zero-trans influx), SR8D8 expressing LST1_205437; conditions: initial xylose uptake (20 s), 30° C., pH 6.5
T2 construct: whole-cell 14C sugar uptake
T2 sequence (A0A1E3QE37 1-603): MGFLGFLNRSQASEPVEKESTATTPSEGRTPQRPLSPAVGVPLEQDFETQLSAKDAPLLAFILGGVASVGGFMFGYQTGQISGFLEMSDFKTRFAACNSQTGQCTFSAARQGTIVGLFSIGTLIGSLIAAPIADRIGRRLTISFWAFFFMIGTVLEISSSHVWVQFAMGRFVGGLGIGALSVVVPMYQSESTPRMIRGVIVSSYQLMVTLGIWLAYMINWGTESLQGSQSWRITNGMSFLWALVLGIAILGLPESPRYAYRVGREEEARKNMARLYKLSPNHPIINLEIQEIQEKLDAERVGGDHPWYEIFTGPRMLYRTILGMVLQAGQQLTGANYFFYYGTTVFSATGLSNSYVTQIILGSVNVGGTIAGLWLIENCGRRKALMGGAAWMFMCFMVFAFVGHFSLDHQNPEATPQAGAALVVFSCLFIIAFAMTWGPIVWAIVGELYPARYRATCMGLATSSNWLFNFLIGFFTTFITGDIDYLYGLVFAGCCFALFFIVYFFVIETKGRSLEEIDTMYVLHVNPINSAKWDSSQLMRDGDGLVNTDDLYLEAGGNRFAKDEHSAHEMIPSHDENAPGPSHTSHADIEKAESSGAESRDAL
Description: (§4) FIG. 7A illustrates sugar uptake kinetics by SR8D8. FIG. 7B illustrates sugar uptake kinetics by SR8D8 expressing AtSWEET1. FIG. 7C illustrates sugar uptake kinetics by SR8D8 expressing ScGal2. FIG. 7D illustrates sugar uptake kinetics by SR8D8 expressing AtSWEET7. FIG. 7E illustrates sugar uptake kinetics by SR8D8 expressing LST1_205437. Initial xylose uptake (20 s) was measured at 30° C. over a concentration range of 1 to 500 mM xylose. FIG. 7F illustrates sugar uptake kinetics by SR8D8. FIG. 7G illustrates sugar uptake kinetics by SR8D8 expressing AtSWEET1. FIG. 7H illustrates sugar uptake kinetics by SR8D8 expressing ScGal2. FIG. 7I illustrates sugar uptake kinetics by SR8D8 expressing AtSWEET7. FIG. 7J illustrates sugar uptake kinetics by SR8D8 expressing LST1_205437. Initial glucose uptake (5 s) was measured at 30° C. over a concentration range of 0.2 to 100 mM glucose. Curve fitting for Michaelis-Menten kinetics was applied to data of three independent measurements at each concentration.
as §2, with “(SR8D8). SR8D8 was grown in YPE medium/plate (10 g/L yeast extract, 20 g/L peptone, and 5 g/L ethanol).” for “(SR8D8).”
(§5) SR8D8 containing the respective plasmid was grown on selective YPE medium to an OD600 of 1-1.5, harvested by centrifugation, and washed twice in ice-cold uptake buffer (100 mM potassium phosphate, pH 6.5). […] Radioactivity was analyzed in a Beckman-Coulter LS6500 multi-purpose liquid scintillation counter (Beckman-Coulter, CA, USA).
(§6) Uptake was measured at sugar concentrations 0.2, 1, 5, 25, and 100 mM for glucose and 1, 5, 25, 66, 100, 200, and 500 mM for xylose. Inhibition of xylose uptake by glucose was measured at 25, 66, and 100 mM xylose with additional 25 and 100 mM unlabeled glucose.

[3] = target: T3, Arabidopsis thaliana AtSWEET1 transporter, wild type, SEQ ID NO: 1 (Arabidopsis thaliana, UniProt Q8L9J7); assay: C14 labeled sugar uptake assay, SR8D8 expressing AtSWEET1; conditions: in words
T3 construct: whole-cell 14C sugar uptake
T3 sequence (Q8L9J7 1-247): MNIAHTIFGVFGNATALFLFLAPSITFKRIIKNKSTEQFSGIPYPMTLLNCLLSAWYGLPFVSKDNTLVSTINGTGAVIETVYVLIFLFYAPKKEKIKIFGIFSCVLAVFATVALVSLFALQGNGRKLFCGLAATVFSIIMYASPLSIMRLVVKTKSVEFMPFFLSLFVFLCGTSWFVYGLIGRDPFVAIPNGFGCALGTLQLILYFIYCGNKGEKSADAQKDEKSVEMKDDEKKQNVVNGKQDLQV
Description: as §1, §2, §3

[4] = target: T4, Saccharomyces cerevisiae ScGal2 (Gal2) transporter, SEQ ID NO:32 (Saccharomyces cerevisiae, UniProt P13181); assay: C14 labeled sugar uptake assay (zero-trans influx), SR8D8 expressing ScGal2; conditions: initial xylose uptake (20 s), 30° C., pH 6.5; cell wet weight; ± SEM
T4 construct: expressed in transfected cells; host or cells: S. cerevisiae SR8D8 (SR8 with HXT1-7 and GAL2 deleted), plasmid p42K-GPD1p-CYC1t
T4 sequence (P13181 1-574): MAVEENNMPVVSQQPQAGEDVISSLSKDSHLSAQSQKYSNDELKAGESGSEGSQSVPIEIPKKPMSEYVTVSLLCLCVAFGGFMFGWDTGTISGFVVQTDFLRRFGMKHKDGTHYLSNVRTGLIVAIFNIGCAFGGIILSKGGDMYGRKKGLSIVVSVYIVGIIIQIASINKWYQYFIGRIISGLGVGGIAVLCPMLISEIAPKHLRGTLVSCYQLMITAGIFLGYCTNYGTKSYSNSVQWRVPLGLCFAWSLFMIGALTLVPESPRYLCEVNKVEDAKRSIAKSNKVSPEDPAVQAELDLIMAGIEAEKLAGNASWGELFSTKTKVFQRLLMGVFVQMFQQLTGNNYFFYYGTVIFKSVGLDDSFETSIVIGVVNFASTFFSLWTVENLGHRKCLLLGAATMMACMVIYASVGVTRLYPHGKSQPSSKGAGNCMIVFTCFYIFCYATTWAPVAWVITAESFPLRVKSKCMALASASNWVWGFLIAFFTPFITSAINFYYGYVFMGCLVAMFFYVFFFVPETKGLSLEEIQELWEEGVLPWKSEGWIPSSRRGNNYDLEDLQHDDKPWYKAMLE
Description: as §4
as §2, with “(SR8D8). SR8D8 was grown in YPE medium/plate (10 g/L yeast extract, 20 g/L peptone, and 5 g/L ethanol).” for “(SR8D8).”
as §5, §6

OC1OC[C@@H](O)[C@H](O)[C@H]1O (stereo partly drawn) [Xylose, D-xylose]
Vmax (xylose) [1]: 100.9 ± 14.8 nmol/min/mg
Vmax (xylose) [2]: 76.8 nmol/min/mg
Vmax (xylose) ([2]; cell wet weight, ± SEM): 76.8 ± 9.0 nmol/min/mg
xylose transport kinetics [3]: very poor xylose transport kinetics
Vmax (xylose) [4]: 88.7 ± 10.0 nmol/min/mg
